ChEMBL document CHEMBL5252622, “Discovery of a brain-sparing GIRK1/4 inhibitor for pharmacological cardioversion of atrial fibrillation” (Bioorg Med Chem Lett, 2023)
In brackets after ≈: the same amount, converted by molar mass. Activity calls are given as the source filed them. No cut-off for these calls is given here.

How the values were obtained:
[1] = molecular target: T1, Kir3.1/Kir3.4 (Homo sapiens, UniProt P48544+P48549); assay: Inhibition of recombinant human GIRK1/4 channel; type: protein-complex assay
T1 sequence (P48549 whole entry): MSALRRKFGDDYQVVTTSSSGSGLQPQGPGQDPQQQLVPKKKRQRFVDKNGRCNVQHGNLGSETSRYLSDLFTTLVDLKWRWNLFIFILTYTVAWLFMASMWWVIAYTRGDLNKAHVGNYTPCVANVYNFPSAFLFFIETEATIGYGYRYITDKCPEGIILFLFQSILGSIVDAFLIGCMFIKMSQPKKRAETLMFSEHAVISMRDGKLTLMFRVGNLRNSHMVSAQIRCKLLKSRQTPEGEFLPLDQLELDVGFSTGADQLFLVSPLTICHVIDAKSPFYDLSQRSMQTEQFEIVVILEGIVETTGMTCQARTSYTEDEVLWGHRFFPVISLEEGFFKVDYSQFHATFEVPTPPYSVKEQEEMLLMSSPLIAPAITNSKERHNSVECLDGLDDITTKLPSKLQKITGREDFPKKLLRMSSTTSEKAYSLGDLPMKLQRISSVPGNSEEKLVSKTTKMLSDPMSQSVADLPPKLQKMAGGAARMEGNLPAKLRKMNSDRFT
T1 sequence (P48544 whole entry): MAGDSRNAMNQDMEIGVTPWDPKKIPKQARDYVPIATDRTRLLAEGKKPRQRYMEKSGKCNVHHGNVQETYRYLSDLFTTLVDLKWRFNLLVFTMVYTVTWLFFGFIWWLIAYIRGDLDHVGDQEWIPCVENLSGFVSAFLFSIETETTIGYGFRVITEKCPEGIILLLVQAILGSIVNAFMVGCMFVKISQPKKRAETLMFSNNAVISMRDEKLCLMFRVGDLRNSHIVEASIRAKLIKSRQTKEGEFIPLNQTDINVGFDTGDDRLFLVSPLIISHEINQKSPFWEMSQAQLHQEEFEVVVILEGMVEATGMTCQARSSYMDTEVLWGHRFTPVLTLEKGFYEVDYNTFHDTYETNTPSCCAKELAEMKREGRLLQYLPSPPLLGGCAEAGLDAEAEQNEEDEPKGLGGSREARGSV

[2] = Aqueous solubility of the compound at pH 6.8; type: physicochemical
[3] = system: MDCK; assay: Substrate activity at p-glycoprotein in MDCK cells overexpressing MDR1 assessed as efflux ratio of permeability from basolateral to apical side over apical to basolateral side; type: cell-based; conditions: Canis lupus familiaris
[4] = Apparent permeability across apical to basolateral side in MDCK cells; type: ADME, cell-based, Canis lupus familiaris; conditions: dog
[5] = molecular target: Kir3.1/Kir3.2 (Homo sapiens) (UniProt P48549+P48051); assay: Inhibition of recombinant human GIRK1/2 channel; type: protein-complex assay
[6] = Intrinsic clearance in human liver microsomes; type: ADME, Microsome; conditions: read-out: CLH
[7] = Intrinsic clearance in rat liver microsomes; type: ADME, Microsome; conditions: read-out: CLH
[8] = molecular target: Sodium channel protein type 5 subunit alpha (Homo sapiens, UniProt Q14524); assay: Inhibition of recombinant human Nav1.5; type: toxicity
[9] = molecular target: Voltage-dependent L-type calcium channel subunit alpha-1C (Homo sapiens, UniProt Q13936); assay: Inhibition of recombinant human Cav1.2; type: toxicity
[10] = molecular target: T2, Potassium voltage-gated channel subfamily KQT member 1 (Homo sapiens, UniProt P51787); assay: Inhibition of recombinant human KCNQ1; type: toxicity
T2 sequence (P51787 whole entry): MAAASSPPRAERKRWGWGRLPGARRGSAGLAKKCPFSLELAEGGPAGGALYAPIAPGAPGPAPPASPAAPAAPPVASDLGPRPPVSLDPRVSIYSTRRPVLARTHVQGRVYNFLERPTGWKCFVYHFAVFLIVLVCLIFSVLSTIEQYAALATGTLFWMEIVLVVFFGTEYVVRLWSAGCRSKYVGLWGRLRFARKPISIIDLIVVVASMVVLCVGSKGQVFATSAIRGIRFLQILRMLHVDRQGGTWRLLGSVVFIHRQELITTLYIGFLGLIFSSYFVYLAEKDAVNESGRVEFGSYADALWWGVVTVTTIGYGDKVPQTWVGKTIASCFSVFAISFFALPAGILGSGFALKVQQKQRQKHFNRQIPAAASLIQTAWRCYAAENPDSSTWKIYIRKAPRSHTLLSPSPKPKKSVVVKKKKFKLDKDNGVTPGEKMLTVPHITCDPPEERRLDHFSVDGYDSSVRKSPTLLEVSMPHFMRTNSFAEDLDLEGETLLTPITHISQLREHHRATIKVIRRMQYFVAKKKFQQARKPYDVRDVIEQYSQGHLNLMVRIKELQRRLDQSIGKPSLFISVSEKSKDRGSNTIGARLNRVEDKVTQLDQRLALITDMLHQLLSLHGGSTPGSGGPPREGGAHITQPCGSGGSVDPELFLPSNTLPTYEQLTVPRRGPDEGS

[11] = molecular target: Voltage-gated inwardly rectifying potassium channel KCNH2 (Homo sapiens, UniProt Q12809); assay: Inhibition of recombinant hERG in the presence of dofetilide by competitive binding assay; type: toxicity

Chain of Voltage-dependent L-type calcium channel subunit alpha-1C (Q13936 whole entry): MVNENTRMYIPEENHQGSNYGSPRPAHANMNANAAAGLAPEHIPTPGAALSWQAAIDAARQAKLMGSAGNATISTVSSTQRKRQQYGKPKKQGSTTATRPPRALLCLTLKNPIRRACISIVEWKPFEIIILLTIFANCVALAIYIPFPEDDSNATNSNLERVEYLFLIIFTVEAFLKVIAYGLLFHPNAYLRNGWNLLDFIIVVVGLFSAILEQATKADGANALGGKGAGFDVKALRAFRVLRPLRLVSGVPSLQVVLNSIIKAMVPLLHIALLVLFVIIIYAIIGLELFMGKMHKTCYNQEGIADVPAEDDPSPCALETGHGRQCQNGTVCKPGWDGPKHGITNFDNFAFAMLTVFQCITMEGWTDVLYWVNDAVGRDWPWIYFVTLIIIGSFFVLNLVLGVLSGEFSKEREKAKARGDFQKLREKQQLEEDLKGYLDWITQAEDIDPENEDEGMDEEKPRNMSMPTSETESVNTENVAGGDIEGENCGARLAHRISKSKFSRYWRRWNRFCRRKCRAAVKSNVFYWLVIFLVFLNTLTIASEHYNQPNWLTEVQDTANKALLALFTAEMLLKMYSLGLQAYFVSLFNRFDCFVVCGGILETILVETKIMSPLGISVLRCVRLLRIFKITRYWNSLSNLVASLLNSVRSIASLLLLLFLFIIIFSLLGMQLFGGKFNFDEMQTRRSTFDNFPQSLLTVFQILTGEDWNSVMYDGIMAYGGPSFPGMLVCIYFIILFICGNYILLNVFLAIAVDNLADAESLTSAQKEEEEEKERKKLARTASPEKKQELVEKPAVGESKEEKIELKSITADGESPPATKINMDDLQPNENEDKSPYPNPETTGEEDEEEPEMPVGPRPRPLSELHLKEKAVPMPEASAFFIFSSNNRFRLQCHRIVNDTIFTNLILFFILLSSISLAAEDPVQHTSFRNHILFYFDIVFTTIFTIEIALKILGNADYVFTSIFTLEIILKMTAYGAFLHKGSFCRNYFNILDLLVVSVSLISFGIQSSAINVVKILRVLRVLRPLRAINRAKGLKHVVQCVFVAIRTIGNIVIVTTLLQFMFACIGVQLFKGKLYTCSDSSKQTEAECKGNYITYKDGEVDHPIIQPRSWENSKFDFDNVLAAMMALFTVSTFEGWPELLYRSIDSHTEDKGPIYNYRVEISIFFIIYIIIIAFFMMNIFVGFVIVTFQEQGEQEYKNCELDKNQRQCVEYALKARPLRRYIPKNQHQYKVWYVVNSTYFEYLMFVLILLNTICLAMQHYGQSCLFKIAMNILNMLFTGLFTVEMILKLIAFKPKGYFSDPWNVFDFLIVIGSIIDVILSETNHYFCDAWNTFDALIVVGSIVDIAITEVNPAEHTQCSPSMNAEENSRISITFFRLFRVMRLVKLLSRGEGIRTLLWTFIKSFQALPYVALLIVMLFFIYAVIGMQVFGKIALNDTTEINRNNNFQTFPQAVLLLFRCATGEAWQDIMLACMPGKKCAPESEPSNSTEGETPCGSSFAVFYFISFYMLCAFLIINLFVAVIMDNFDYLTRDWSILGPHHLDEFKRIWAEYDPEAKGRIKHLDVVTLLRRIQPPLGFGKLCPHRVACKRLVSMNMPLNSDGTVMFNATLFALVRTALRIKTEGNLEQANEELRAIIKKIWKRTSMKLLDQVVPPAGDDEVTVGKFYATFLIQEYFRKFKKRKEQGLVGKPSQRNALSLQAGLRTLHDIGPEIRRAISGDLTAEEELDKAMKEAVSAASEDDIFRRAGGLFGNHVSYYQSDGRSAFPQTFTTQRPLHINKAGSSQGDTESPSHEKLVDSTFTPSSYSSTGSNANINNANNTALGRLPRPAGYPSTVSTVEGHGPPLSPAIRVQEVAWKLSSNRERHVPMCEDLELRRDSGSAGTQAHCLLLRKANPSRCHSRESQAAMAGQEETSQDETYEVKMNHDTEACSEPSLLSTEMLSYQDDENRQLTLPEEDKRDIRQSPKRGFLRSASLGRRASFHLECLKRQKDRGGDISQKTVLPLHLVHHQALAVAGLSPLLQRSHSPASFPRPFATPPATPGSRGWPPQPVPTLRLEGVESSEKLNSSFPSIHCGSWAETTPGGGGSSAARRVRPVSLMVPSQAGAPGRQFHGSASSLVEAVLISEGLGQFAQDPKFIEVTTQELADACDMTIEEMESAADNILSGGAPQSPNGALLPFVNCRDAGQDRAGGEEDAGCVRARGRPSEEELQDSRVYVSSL
Chain of Sodium channel protein type 5 subunit alpha (Q14524 whole entry): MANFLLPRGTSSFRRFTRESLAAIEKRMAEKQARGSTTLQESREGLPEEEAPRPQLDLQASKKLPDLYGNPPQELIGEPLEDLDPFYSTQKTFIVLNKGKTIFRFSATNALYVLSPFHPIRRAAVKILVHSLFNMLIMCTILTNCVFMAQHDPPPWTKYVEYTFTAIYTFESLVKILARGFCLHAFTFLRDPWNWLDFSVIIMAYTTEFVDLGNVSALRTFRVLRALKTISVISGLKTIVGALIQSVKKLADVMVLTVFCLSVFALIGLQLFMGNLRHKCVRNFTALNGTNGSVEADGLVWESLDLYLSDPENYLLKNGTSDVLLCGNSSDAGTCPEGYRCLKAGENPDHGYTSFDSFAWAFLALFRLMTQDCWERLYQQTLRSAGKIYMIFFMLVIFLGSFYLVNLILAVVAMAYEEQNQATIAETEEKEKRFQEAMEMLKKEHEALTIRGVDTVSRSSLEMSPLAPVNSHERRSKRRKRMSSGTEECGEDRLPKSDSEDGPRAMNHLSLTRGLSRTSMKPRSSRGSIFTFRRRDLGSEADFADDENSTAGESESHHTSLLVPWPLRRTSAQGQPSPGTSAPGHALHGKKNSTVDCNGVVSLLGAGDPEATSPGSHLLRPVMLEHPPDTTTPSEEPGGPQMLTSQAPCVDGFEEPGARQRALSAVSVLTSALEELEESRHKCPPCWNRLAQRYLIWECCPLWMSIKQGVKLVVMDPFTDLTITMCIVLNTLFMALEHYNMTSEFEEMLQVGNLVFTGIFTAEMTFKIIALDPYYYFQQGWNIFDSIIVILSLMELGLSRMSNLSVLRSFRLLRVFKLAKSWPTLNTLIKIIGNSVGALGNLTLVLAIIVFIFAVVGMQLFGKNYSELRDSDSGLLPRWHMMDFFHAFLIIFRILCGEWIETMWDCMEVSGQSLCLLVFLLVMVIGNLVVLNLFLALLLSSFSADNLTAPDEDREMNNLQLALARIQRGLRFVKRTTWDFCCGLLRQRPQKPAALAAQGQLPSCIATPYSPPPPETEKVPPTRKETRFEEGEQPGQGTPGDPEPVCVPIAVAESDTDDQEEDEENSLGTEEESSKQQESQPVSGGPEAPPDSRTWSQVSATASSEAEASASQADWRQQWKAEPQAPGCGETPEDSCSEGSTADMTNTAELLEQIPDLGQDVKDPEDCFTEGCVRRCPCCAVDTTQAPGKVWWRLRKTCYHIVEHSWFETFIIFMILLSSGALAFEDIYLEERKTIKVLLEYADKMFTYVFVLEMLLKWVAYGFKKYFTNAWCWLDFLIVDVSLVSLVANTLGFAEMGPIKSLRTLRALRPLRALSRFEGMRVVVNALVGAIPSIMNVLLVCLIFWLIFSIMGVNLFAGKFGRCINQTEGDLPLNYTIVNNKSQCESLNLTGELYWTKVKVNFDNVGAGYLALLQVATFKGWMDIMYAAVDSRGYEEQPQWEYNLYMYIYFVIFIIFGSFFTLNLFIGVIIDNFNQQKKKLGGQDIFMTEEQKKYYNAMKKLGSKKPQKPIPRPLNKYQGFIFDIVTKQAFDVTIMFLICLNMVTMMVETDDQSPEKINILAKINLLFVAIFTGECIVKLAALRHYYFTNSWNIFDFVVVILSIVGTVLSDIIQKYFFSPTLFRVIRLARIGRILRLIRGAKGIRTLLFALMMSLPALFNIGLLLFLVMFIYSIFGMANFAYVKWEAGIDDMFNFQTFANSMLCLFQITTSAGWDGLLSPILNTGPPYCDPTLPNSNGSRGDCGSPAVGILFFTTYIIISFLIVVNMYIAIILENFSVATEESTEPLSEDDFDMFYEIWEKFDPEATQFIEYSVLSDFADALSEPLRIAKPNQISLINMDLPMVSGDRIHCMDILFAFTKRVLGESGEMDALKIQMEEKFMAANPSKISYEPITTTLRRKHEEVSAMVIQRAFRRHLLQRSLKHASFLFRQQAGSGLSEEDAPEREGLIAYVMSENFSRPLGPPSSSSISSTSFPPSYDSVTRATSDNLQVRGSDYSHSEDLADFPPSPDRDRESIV

Compound | IC50 [1] [nM] | solubility [2] [µM] | Papp A→B [4] [×10⁻⁶ cm/s] | inhibition [5] | microsomal CLint [6] [µL/min/mg] | microsomal CLint [7] [µL/min/mg] | Ratio [3] | IC50 [8] [nM] | IC50 [9] [nM] | IC50 [10] [nM] | IC50 [11] [nM]
COc1ncc(Cl)c2c1c(=O)cc(CO)n2-c1c(Cl)cccc1Cl | 27 | 89 (≈ 34.3 µg/mL) | 22.6 | – | – | – | 2.7 | – | – | – | –
O=c1cc(CO)n(-c2c(Cl)cccc2Cl)c2c(Cl)cnc(OCC(O)CO)c12 (configuration not stated) | 80 | 700 (≈ 312 µg/mL) | 7 | – | – | – | 12.1 | – | – | – | –
Cc1cc(=O)c2c(OCC(O)CC(O)CO)ncc(Cl)c2n1-c1c(Cl)cccc1Cl (configuration not stated) | 87 | 230 (≈ 109 µg/mL) | 16.6 | – | – | – | 4.5 | – | – | – | –
O=c1cc(CO)n(-c2c(Cl)cccc2Cl)c2c(Cl)cnc(OC[C@@H](O)CO)c12 | 150 | – | 5 | – | – | – | 10.6 | > 50000 | > 50000 | > 50000 | > 50000
O=c1cc(CO)n(-c2c(Cl)cccc2Cl)c2c(Cl)cnc(OC(CO)CO)c12 | 250 | 300 (≈ 134 µg/mL) | 6.9 | – | – | – | 18.3 | – | – | – | –

Further lines, with some results ahead:

IC50 [1] [nM] | solubility [2] [µM] | Papp A→B [4] [×10⁻⁶ cm/s] | inhibition [5] | microsomal CLint [6] [µL/min/mg] | microsomal CLint [7] [µL/min/mg] | Compound | Ratio [3] | IC50 [8] [nM] | IC50 [9] [nM] | IC50 [10] [nM] | IC50 [11] [nM]
220 | 240 (≈ 107 µg/mL) | 20.4 | – | – | – | Cc1cc(=O)c2c(F)cncc2n1-c1c(Cl)cc(C#CCN2CCOCC2)cc1Cl | 1.1 | – | – | – | –
– | 600 (≈ 319 µg/mL) | 23 | – | – | – | Cc1cc(=O)c2c(OCCOCCOCCOCCO)ncc(Cl)c2n1-c1c(Cl)cccc1Cl | 5.7 | – | – | – | –
50 | 13 (≈ 4.93 µg/mL) | – | inactive | 77 | 236 | CSc1c(C#N)c(=O)c2ccc(F)cc2n1-c1c(Cl)cccc1Cl | – | > 50000 | 24200 | 33000 | > 30000
> 5000 | 680 (≈ 327 µg/mL) | 13.1 | – | – | – | Cc1cc(=O)c2c(OCC(O)CO)nc(N3CCOCC3)cc2n1-c1c(Cl)cccc1Cl (configuration not stated) | – | – | – | – | –
